According to the supplement of paper PMC10307832:

Tests used:
Assay in all cases: relative viability (nuclei count vs DMSO), 5 days (fraction); higher = more cells survive
[1] = compound: Cc1ccc(F)c(NC(=O)Nc2ccc(-c3cccc4[nH]nc(N)c34)cc2)c1 [Linifanib] + Cc1cc(Nc2cc(N3CCN(C)CC3)nc(Sc3ccc(NC(=O)C4CC4)cc3)n2)n[nH]1 [Tozasertib] (partner 0.1 µM)
Method in brief: (§1)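 Relative viability was taken as the ratio of nuclei in treated wells to nuclei in vehicle wells. Lung cancer cell lines in 1536-well plates received compounds by pin tool one day after seeding, either one drug alone or a fixed anchor-drug dose plus five library-drug doses (not always all listed) in √10 steps. Nuclei were counted on 4× images after 5 days of treatment, and values are medians of duplicate plates.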

[2] = compound: Cc1ccc(F)c(NC(=O)Nc2ccc(-c3cccc4[nH]nc(N)c34)cc2)c1 [Linifanib] + C[C@@H](Oc1cc(-c2cnn(C3CCNCC3)c2)cnc1N)c1c(Cl)ccc(F)c1Cl [Crizotinib] (partner 1 µM)
Method in brief: as §1

[3] = compound: Cc1ccc(F)c(NC(=O)Nc2ccc(-c3cccc4[nH]nc(N)c34)cc2)c1 [Linifanib] + Nc1ncn([C@H]2C[C@H](O)[C@@H](CO)O2)c(=O)n1 [Decitabine] (partner 2 µM)
Method in brief: as §1

[4] = compound: Cc1ccc(F)c(NC(=O)Nc2ccc(-c3cccc4[nH]nc(N)c34)cc2)c1 [Linifanib] + CCNC(=O)c1noc(-c2cc(C(C)C)c(O)cc2O)c1-c1ccc(CN2CCOCC2)cc1 [Luminespib] (partner 0.01 µM)
Method in brief: as §1

[5] = compound: Cc1ccc(F)c(NC(=O)Nc2ccc(-c3cccc4[nH]nc(N)c34)cc2)c1 [Linifanib] + CC(C)C[C@H](NC(=O)[C@H](Cc1ccccc1)NC(=O)c1cnccn1)B(O)O [Bortezomib] (partner 0.002 µM)
Method in brief: as §1

[6] = compound: Cc1ccc(F)c(NC(=O)Nc2ccc(-c3cccc4[nH]nc(N)c34)cc2)c1 [Linifanib] + CC(=O)Nc1cccc(-n2c(=O)n(C3CC3)c(=O)c3c(Nc4ccc(I)cc4F)n(C)c(=O)c(C)c32)c1 [Trametinib] (partner 0.02 µM)
Method in brief: as §1

Cell Line | relative viability ([1]; first compound 0.03162 µM) | relative viability ([1]; first compound 0.1 µM) | relative viability ([1]; first compound 0.3162 µM) | relative viability ([2]; first compound 0.03162 µM) | relative viability ([2]; first compound 0.1 µM) | relative viability ([2]; first compound 0.3162 µM) | relative viability ([3]; first compound 0.03162 µM) | relative viability ([3]; first compound 0.1 µM) | relative viability ([3]; first compound 0.3162 µM) | relative viability ([4]; first compound 0.03162 µM) | relative viability ([4]; first compound 0.1 µM) | relative viability ([4]; first compound 0.3162 µM) | relative viability ([5]; first compound 0.03162 µM) | relative viability ([5]; first compound 0.1 µM) | relative viability ([5]; first compound 0.3162 µM) | relative viability ([6]; first compound 0.03162 µM) | relative viability ([6]; first compound 0.1 µM) | relative viability ([6]; first compound 0.3162 µM)
NCI-H727 | 0.535 | 0.659 | 0.529 | 1.01 | 1.01 | 0.725 | 0.883 | 0.885 | 0.88 | 0.312 | 0.292 | 0.358 | 0.934 | 0.922 | 0.702 | 0.396 | 0.418 | 0.388
NCI-H838 | 0.248 | 0.301 | 0.229 | 0.847 | 0.839 | 0.841 | 0.521 | 0.472 | 0.443 | 0.373 | 0.285 | 0.267 | 1.24 | 1.08 | 0.968 | 0.528 | 0.554 | 0.521
NCI-H1355 | 0.504 | 0.547 | 0.551 | 1.04 | 1.02 | 1.14 | 0.352 | 0.387 | 0.338 | 0.777 | 0.672 | 0.648 | 1.23 | 1.26 | 1.26 | 0.407 | 0.497 | 0.404
NCI-H1437 | 0.375 | 0.444 | 0.389 | 1.05 | 0.849 | 0.888 | 0.62 | 0.573 | 0.571 | 1.12 | 1.17 | 1.04 | 0.644 | 0.688 | 0.491 | 0.559 | 0.618 | 0.45
NCI-H1650 | 0.389 | 0.475 | 0.377 | 0.955 | 1.17 | 0.864 | 0.482 | 0.407 | 0.37 | 0.2 | 0.188 | 0.205 | 0.216 | 0.212 | 0.199 | 0.563 | 0.673 | 0.541
NCI-H1651 | 0.618 | 0.832 | 0.695 | 0.834 | 0.929 | 0.831 | 0.616 | 0.592 | 0.517 | 0.945 | 0.748 | 0.797 | 0.967 | 0.934 | 0.895 | 0.896 | 0.787 | 0.787
NCI-H1666 | 0.626 | 0.666 | 0.658 | 0.971 | 0.989 | 0.966 | 0.856 | 0.691 | 0.698 | 1.03 | 1.04 | 0.999 | 0.892 | 0.756 | 0.643 | 0.851 | 0.878 | 0.842
NCI-H1734 | 0.289 | 0.288 | 0.238 | 0.768 | 0.834 | 0.735 | 0.493 | 0.514 | 0.508 | 0.223 | 0.216 | 0.174 | 1.04 | 1.15 | 0.93 | 0.618 | 0.693 | 0.648
